Article PMC7305224, “Mutually stabilizing interactions between proto-peptides and RNA” (Nature Communications, 2020)

Tested on: RNA duplex 1
Assay: Depsipeptide hydrolysis assay with or without RNA duplex 1, SimFit modelling
Type: physicochemical
Source text: Fig. 5 RNA increases the hydrolytic lifetime of a cationic depsipeptide. a A schematic of depsipeptide-RNA interactions leading to increased depsipeptide lifetimes. The free depsipeptide is hydrolyzed with a pseudo-first rate constant, khyd-free. Binding of the depsipeptide to RNA is governed at equilibrium by kassoc/kdissoc. The pseudo-first rate constant for of depsipeptide hydrolysis within the depsipeptide–RNA complex is khyd-complex. Under conditions where complex formation is favorable and khyd-complex < khyd-free, the presence of RNA will increase the depsipeptide lifetime. b HPLC traces (270 nm) showing hydrolysis of depsipeptide 9 (25 μM) at various time points in the presence or absence of RNA duplex 1 at 37 °C in pH 7.3 buffer. The C-terminal fragment of the hydrolyzed depsipeptide is not observed because it lacks the Aba chromophore. (c) Time courses for hydrolysis of depsipeptide 9 (25 μM) with varying concentrations of the RNA duplex 1. The curves shown are from simultaneous fits of data to the model given in panel a using SimFit[44]. During fitting, we fixed kassoc = 1 × 10^5 M^−1 s^−1. Therefore, three rate constants were fit, with values obtained by the fitting of: khyd-free = 1.1 × 10^−4 s^−1, khyd-complex = 3.2 × 10^−6 s^−1, and kdissoc = 8.3 × 10^−3 s^−1. d Kinetic profile of the hydrolysis reaction of depsipeptide 9 (25 μM) in the presence of 7 μM RNA duplex 1. […] The extent of depsipeptide hydrolysis and RNA hybridization were then measured. Data are shown as a scatter plot of two independently repeated experiments.
To determine the extent of depsipeptide hydrolysis, the depsipeptide (25 μM) was incubated at 37 °C in buffer (100 mM HEPES, 10 mM NaCl, pH 7.3) in the presence or absence of 10mer RNA duplex 1 (5′-rCrGrArUrUrUrArGrCrG-3′ and 3′-rGrCrUrArArArUrCrGrC-5′) at various concentrations, or with single-stranded RNA (5′-rCrGrArUrUrUrArGrCrG-3′, 100 μM), for up to 100 h. Prior to adding depsipeptide to the reaction from its stock solution, the RNA was annealed by heating to 75 °C for 5 min, and then slowly cooling to room temperature. Reaction aliquots were quenched using 3% TFA and frozen or immediately analyzed by HPLC (270 nm). The relative concentrations of intact and hydrolyzed depsipeptide were quantified by integrating the corresponding peaks in HPLC traces. The kinetic profiles of depsipeptide hydrolysis were fit using SimFit-32 (provided by G. von Kiedrowski) according to the reaction scheme shown in Fig. 5a.
Data from the nine independent depsipeptide hydrolysis reactions carried out with different concentrations of RNA duplex were simultaneously fit using SimFit to the reaction model shown in Fig. 5a. In the model, the free depsipeptide is subject to hydrolysis at a pseudo-first order rate governed by khyd-free. Binding of the depsipeptide to RNA according to an equilibrium determined by kassoc/kdissoc yields a depsipeptide-RNA complex, for which the pseudo-first order rate of ester hydrolysis is described by khyd-complex. During fitting, we fixed kassoc = 1 × 10^5 M^−1 s^−1, on the lower end of rates observed and expected for protein–RNA association. Therefore, three parameters were variable during the fitting, and the final rate constants determined by the fitting were: khyd-free = 1.1 × 10^−4 s^−1, khyd-complex = 3.2 × 10^−6 s^−1, and kdissoc = 8.3 × 10^−3 s^−1. […] Our model assumes a 1:1 stoichiometry for depsipeptide:RNA in the complex, and assumes the RNA is present only as a duplex (ignores steps involving RNA strand hybridization to form the duplex). The final RMS error of the fit was 5.4%. The output file obtained from the fitting is provided in the Supplementary Note.

[1] = SimFit results output file, final NEWTON values

level of intact depsipeptide with RNA vs depsipeptide alone (25 μM depsipeptide ± RNA duplex 1 (25 μM each strand), 37 °C, 12 h, HPLC): substantially higher levels | increase of observed depsipeptide lifetime by RNA duplex (25 μM depsipeptide, RNA duplex 1, 37 °C, pH 7.3 buffer, HPLC): ~ 30 fold | k3 (SimFit output; khyd-complex) [1]: 3.1996E-6 | k1 (SimFit output; khyd-free) (SimFit results output file, final NEWTON values, R.M.S. 5.4087 %): 1.0596E-4 | Kd (from fixed kassoc and calculated kdissoc, read-out: predicted dissociation constant of the depsipeptide-RNA complex): 100 nM | fold by which khyd-complex is lower than khyd-free (ratio of fitted rate constants): ~ 34 fold
Substance: Aba-Gly-Ala-Dab-Lys-Ala-Dab-Lys-lac-Dab-Lys-Ala-Dab-Lys-NH2 [compound 9]
kdissoc (depsipeptide–RNA complex) (SimFit fit of hydrolysis data with kassoc fixed at 1 × 10^5 M^−1 s^−1, 37 °C, pH 7.3): 0.0083 s⁻¹ | k2 (SimFit output; kdissoc) [1]: 8.2871E-3
